The target in test [1] is Peroxisome proliferator-activated receptor gamma/Nuclear receptor coactivator 2 (Homo sapiens, UniProt P37231). The test is classed as functional.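 Note: agonist potency for raising coactivator recruitment to the receptor.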
In test [2] the target is Peroxisome proliferator-activated receptor gamma/Nuclear receptor coactivator 3 (Homo sapiens, UniProt P37231). The test is classed as functional.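 Note: agonist potency for raising coactivator recruitment to the receptor.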
In test [3] the target is Peroxisome proliferator-activated receptor gamma/Nuclear receptor coactivator 1 (Homo sapiens, UniProt P37231). The test is classed as functional.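 Note: agonist potency as compounds enhance coactivator SRC-1 recruitment to PPARgamma.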
Chain of Peroxisome proliferator-activated receptor gamma/Nuclear receptor coactivator 1 (P37231 whole entry): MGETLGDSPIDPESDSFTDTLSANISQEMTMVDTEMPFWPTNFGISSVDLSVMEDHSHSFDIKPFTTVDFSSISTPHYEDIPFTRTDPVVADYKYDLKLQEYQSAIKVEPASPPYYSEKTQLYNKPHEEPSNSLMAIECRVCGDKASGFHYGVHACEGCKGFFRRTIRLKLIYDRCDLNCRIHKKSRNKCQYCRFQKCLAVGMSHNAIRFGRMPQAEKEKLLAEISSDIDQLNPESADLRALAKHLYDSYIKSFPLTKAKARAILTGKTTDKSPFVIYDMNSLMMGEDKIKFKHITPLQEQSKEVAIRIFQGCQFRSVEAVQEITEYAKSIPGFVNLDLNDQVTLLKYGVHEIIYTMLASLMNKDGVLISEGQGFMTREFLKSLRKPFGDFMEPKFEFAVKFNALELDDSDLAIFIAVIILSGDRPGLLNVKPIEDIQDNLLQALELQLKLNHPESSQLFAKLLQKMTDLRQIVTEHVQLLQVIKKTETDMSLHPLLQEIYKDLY
Chain of Peroxisome proliferator-activated receptor gamma/Nuclear receptor coactivator 1 (Q15788 whole entry, further chain): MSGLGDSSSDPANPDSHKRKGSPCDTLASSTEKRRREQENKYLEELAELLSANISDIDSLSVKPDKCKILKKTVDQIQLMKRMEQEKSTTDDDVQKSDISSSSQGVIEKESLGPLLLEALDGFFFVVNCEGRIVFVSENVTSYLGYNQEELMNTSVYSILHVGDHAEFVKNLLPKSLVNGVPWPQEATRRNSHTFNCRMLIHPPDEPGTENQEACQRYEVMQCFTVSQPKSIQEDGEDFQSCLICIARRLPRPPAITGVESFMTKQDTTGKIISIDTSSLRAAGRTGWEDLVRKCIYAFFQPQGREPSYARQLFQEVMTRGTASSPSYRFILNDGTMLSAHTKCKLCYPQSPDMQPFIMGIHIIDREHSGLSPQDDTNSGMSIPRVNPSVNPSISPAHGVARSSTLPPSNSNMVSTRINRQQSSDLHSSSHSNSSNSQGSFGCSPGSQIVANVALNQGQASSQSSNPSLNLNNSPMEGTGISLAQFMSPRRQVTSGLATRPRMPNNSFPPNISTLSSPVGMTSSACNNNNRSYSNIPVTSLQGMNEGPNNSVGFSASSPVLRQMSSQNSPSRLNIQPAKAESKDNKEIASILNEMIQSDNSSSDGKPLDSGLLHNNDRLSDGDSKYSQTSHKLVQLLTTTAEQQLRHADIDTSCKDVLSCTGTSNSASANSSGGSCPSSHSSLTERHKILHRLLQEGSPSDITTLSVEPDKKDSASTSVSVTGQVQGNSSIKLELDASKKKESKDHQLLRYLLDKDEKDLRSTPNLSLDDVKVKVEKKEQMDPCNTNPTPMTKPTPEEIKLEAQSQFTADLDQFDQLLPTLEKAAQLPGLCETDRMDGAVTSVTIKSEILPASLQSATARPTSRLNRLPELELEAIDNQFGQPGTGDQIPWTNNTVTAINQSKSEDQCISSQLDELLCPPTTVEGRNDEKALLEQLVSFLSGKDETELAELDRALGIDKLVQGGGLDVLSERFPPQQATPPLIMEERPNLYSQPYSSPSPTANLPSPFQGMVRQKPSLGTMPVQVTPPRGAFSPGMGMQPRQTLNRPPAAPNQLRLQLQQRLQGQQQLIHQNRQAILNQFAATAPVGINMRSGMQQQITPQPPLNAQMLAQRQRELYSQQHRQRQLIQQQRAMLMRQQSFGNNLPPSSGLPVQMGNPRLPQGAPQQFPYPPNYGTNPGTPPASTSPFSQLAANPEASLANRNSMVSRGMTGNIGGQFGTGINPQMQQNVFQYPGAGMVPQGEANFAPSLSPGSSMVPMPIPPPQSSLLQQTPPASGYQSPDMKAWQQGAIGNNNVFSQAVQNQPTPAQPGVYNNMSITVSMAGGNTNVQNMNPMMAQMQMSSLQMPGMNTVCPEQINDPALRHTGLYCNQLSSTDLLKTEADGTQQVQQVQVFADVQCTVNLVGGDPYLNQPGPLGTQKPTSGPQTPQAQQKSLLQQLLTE
Test [4] addresses T1, Mannose-6-phosphate isomerase (Homo sapiens, UniProt P34949).
T1 sequence (P34949 whole entry): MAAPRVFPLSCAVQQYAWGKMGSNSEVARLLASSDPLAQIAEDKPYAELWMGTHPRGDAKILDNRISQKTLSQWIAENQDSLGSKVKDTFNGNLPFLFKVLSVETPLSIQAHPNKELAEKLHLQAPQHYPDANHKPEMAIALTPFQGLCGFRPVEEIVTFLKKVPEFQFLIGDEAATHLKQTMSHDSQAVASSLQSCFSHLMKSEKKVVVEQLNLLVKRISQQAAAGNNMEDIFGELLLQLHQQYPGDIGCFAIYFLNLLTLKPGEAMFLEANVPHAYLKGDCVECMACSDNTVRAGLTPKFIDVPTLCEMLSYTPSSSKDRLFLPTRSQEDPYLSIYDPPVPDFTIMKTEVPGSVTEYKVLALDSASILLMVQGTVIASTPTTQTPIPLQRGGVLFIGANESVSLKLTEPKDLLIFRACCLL
Put plainly: MPI inhibition at elevated mannose 6-phosphate – biochemical, fluorescence intensity, high mannose 6-phosphate, primary screen (AID 1220).

Test [5] has as its target T1, Mannose-6-phosphate isomerase. Put plainly: MPI enzyme activity inhibition – biochemical, fluorescence intensity, coupled assay, primary screen (AID 1209).
Test [6] has as its target Glyceraldehyde-3-phosphate dehydrogenase (Homo sapiens, UniProt P04406).
The target in test [7] is T2, Alkaline phosphatase, tissue-nonspecific isozyme (Homo sapiens, UniProt P05186).
T2 sequence (P05186 whole entry): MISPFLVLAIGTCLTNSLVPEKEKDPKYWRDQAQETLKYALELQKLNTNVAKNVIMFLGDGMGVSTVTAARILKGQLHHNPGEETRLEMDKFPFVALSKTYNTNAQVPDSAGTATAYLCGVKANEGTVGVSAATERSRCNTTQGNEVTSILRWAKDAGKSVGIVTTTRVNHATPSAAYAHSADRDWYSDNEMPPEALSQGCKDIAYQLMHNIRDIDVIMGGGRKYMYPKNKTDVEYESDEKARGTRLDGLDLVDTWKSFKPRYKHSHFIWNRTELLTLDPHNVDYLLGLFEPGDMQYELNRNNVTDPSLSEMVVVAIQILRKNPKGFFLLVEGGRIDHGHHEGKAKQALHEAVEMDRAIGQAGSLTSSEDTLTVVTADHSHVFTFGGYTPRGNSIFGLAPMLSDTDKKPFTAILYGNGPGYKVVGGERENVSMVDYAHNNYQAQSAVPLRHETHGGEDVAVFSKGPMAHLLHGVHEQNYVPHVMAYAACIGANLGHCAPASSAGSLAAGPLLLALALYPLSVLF
Description: potency against alkaline phosphatase TNAP – biochemical, luminescent, dose response, SAR follow-up (AID 1056).

The target in test [8] is T3, Heat shock factor protein 1 (Mus musculus, UniProt P38532).
T3 sequence (P38532 whole entry): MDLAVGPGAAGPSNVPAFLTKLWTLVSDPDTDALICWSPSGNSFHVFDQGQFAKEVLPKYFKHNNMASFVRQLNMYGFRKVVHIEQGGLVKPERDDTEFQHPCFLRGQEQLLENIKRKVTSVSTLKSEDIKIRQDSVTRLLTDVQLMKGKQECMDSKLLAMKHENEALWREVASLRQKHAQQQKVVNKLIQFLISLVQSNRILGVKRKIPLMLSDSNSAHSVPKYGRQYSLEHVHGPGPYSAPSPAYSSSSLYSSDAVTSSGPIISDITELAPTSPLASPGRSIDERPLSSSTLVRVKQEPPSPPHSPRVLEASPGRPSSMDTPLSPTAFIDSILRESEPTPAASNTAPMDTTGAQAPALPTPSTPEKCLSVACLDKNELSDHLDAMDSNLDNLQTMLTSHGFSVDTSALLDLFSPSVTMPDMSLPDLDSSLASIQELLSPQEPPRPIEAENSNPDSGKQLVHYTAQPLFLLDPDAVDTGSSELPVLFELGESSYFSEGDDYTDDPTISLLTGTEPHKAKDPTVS
Put plainly: decrease of HSF1-responsive luciferase luminescence – cell-based, NIH3T3, dose retest, confirmation (AID 2382).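 Note: NIH3T3 fibroblasts with HSF1-driven luciferase reporter stressed by proteasome inhibitor MG132; luminescence from HSF1-driven luciferase expression after 8 hours of MG132 stress.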 The test is classed as functional.

Test [9] addresses T4, Beta-galactosidase (Escherichia coli, UniProt Q8VNN2). Description: detection-enzyme interference by beta-gal modulators – biochemical, E. coli enzyme, set 3, artefact control for CCR6 antagonist project, dose response (AID 504712). The test is classed as functional.
The nature of test [10]: Counterscreen for IDE inhibitors: Luminescence-based cell-based high throughput dose response assay to identify compounds that are cytotoxic to HEK cells. [Related pubchem assays: 434962 (Primary screen (IDE inhibitors in singlicate)), 449730 (Counterscreen (Cytotoxicity in triplicate)), 435028 (Confirmation (IDE inhibitors in triplicate)) …. It counts as functional. Conditions: HEK293.

Another test concerns the target T5, Insulin-degrading enzyme (Homo sapiens, UniProt P14735).
T5 sequence (P14735 whole entry): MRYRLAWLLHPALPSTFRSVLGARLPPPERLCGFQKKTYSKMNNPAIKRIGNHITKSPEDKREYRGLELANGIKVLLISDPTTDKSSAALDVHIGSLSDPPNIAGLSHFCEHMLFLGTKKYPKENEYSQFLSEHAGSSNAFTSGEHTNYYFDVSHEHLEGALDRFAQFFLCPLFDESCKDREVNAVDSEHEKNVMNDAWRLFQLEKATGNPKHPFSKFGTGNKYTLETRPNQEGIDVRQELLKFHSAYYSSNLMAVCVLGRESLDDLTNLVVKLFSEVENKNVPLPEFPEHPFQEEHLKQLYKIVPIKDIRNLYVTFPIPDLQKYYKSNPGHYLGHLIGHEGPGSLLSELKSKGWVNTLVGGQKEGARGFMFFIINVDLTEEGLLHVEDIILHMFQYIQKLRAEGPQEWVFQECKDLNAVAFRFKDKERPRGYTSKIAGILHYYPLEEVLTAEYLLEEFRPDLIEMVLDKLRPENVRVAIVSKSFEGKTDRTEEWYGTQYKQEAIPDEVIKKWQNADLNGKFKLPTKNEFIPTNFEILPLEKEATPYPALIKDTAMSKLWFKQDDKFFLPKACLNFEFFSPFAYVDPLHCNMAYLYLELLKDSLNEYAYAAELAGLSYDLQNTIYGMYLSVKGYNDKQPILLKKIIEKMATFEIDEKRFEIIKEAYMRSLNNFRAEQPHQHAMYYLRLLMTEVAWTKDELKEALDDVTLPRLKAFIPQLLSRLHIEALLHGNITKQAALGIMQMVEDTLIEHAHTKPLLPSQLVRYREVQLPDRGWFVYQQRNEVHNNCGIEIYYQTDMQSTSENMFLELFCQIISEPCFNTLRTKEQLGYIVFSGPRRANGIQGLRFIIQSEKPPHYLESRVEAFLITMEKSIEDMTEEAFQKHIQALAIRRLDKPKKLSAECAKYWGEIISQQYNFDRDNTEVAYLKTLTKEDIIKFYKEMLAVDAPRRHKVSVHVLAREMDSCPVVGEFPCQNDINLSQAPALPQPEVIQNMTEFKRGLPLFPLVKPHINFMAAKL
Put plainly: Dose Response: Fluorescence polarization-based cell-based high throughput dose response assay for inhibitors of insulin-degrading enzyme (IDE). [Related pubchem assays: 434962 (Primary screen (IDE inhibitors in singlicate)), 449730 (Counterscreen (Cytotoxicity in triplicate)), 435028 (Confirmation (IDE inhibitors in triplicate)), 434984 (Summary …. It counts as functional.

The target of test [11] is T6, Kappa-type opioid receptor (Homo sapiens, UniProt P41145). The test is classed as functional.
T6 sequence (P41145 whole entry): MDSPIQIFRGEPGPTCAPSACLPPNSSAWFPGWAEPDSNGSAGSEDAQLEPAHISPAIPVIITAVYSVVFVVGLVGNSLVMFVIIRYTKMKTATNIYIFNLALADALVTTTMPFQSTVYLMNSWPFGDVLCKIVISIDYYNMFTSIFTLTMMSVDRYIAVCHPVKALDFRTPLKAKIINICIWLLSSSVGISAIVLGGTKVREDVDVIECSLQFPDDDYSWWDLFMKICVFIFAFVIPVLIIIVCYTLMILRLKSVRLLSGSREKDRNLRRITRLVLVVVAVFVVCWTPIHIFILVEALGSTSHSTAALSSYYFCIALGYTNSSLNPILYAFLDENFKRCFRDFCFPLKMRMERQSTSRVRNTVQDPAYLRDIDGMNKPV
The target of test [12] is T4, Beta-galactosidase. The test is classed as functional.
The target in test [13] is T6, Kappa-type opioid receptor. The test is classed as functional. The source holds these as a separate data set.
Test [14] deals with Alkaline phosphatase, placental type (Homo sapiens, UniProt P05187). Description: human placental alkaline phosphatase inhibition – biochemical, luminescence, confirmation (AID 1512). It counts as functional.
Test [15] deals with G-protein coupled receptor 55 (Homo sapiens, UniProt Q9Y2T6). Description: selective activators of receptor GPR55 – imaging, U2OS cells, beta-arrestin-GFP redistribution, primary screen (AID 1961). It counts as functional.
Chain of G-protein coupled receptor 55 (Q9Y2T6 whole entry, the tested form may be a part): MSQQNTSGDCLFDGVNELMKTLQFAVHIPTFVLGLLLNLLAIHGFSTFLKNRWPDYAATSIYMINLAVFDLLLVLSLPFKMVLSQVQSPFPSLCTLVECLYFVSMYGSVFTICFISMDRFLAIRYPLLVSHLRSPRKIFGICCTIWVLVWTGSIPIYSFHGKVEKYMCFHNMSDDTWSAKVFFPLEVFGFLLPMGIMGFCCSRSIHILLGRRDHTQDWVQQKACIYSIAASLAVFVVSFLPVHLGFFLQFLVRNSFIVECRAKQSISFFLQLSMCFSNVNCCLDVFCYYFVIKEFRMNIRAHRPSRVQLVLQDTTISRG
For test [16], the target named is T7, Nucleotide-binding oligomerization domain-containing protein 1 (Homo sapiens, UniProt Q9Y239).
T7 sequence (Q9Y239 whole entry): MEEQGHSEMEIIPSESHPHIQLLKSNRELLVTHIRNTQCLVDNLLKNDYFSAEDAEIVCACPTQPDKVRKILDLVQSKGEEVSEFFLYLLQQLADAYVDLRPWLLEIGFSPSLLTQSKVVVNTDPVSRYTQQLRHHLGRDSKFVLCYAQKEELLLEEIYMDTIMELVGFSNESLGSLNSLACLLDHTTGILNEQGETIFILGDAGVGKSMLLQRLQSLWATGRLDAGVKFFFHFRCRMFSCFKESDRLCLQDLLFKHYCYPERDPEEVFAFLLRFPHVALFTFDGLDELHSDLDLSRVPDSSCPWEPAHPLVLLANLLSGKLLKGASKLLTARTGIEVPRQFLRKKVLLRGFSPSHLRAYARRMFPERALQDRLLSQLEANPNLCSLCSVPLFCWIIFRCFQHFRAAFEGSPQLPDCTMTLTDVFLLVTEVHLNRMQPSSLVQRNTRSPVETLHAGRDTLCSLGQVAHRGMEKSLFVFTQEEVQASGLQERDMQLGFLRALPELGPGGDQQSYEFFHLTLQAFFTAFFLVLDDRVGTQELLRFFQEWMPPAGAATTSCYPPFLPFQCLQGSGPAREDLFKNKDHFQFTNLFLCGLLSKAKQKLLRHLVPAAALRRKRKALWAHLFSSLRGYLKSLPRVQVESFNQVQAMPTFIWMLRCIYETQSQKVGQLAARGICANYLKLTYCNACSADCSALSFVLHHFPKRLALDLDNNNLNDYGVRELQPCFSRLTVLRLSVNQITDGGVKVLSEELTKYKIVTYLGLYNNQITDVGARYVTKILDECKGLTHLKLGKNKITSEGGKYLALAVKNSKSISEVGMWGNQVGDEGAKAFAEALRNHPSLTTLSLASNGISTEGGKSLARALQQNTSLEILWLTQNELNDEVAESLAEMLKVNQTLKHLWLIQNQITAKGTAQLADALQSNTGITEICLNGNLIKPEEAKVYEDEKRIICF
Put plainly: blockers of NOD1 pathway activity – revised, SAR follow-up (AID 2333). It counts as functional.

For the next test, the target named is Tumor necrosis factor (Homo sapiens, UniProt P01375). Description: analog potency on TNFa NF-kB signaling – cell-based, revised, SAR follow-up (AID 2337). It counts as functional.
Chain of Tumor necrosis factor (P01375 whole entry, the tested form may be a part): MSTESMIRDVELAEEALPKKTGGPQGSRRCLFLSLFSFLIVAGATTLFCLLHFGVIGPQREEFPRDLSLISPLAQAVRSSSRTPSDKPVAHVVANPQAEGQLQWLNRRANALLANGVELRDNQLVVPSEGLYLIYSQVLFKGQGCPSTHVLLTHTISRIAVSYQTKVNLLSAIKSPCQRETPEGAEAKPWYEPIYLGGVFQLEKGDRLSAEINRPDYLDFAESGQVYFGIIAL
Test [17] has as its target Nucleotide-binding oligomerization domain-containing protein 2 (Homo sapiens, UniProt Q9HC29). Put plainly: PubChem AID 2334. The test is classed as functional.
The next test has as its system HEK293. Put plainly: cells. The settings on record: Homo sapiens.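 Note: cells exposed to compound for 14 hours overnight before viability readout.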

Calls of active or inactive are those of the source.

Chain of Peroxisome proliferator-activated receptor gamma/Nuclear receptor coactivator 3 (P37231 whole entry): as the sequence (P37231 whole entry) above
Chain of Peroxisome proliferator-activated receptor gamma/Nuclear receptor coactivator 3 (Q9Y6Q9 whole entry, further chain): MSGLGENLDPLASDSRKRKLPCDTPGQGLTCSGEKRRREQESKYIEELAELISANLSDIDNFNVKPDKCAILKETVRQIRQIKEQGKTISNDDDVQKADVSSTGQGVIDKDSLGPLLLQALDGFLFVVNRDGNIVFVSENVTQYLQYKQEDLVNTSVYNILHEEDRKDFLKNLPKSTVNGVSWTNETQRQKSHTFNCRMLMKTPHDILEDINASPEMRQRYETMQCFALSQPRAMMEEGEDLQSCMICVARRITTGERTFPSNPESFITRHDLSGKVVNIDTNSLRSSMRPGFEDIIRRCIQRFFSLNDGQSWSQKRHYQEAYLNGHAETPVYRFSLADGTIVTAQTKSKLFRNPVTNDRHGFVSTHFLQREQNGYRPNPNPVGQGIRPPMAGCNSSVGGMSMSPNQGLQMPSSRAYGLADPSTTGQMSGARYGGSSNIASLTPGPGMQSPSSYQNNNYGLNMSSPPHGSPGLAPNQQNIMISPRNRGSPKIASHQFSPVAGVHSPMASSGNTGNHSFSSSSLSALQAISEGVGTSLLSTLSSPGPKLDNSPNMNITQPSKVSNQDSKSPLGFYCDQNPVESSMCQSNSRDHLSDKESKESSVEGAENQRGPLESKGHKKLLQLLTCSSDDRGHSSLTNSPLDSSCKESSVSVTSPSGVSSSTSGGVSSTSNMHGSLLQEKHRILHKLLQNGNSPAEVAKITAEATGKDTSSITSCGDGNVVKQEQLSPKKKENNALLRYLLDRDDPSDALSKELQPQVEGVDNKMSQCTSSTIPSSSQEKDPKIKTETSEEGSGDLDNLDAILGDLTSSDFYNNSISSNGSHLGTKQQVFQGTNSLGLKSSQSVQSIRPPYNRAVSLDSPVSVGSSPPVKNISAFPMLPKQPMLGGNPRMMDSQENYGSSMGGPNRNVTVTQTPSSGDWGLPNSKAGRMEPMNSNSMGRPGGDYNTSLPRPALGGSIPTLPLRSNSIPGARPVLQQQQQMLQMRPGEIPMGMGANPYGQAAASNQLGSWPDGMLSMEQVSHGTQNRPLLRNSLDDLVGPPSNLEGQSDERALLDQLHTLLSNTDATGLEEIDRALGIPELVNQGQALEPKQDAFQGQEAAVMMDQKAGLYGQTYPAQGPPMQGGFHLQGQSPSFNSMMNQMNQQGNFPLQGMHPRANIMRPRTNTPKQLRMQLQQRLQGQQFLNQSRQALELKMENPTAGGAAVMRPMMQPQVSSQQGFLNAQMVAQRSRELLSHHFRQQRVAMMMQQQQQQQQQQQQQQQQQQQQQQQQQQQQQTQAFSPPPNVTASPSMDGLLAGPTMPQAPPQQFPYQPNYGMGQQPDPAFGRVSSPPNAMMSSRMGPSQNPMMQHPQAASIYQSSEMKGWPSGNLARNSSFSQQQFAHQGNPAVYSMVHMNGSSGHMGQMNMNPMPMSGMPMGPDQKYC

The EC50 is the concentration needed to bring the measured effect to its halfway point. `O=S(=O)(c1ccccc1)c1nc(-c2ccco2)oc1N1CCOCC1`: the EC50 in test [1] is on record as > 79.4 µM (not active); in [2], > 79.4 µM (not active); in test [3], 85.1 µM (not active).

In general, IC50 refers to the concentration needed to halve the response being measured. Turning to `CN1C(=O)N(C)C(=O)C2(Cc3c(ccc4ccccc34)N(C)C2)C1=O`, the IC50 in test [4] and in test [5] was > 50 µM (not active) each time.

Take `O=C(Nc1ccc([N+](=O)[O-])cc1)/C(=C/c1cccc([N+](=O)[O-])c1)NC(=O)C1CCCCC1`: the concentration giving a half-maximal response (EC50) in test [1], in test [2] and in test [3] was > 79.4 µM (not active) throughout.

In the case of `Cc1cc(C)c(S(=O)(=O)Nc2cnc3ccccc3c2)c(C)c1`, the half-maximal inhibitory concentration (IC50) is > 100 µM (not active) in test [6] and > 100 µM (inactive) in test [7].

As for `O=C(Cc1ccccc1)Nc1cccc(N2C(=O)C=CC2=O)c1`, the EC50 in [8] was 19 µM (active). Further, the IC50 on Beta-galactosidase [9] was > 66.6 µM (inactive).

With `O=C(c1ccco1)N1CCN(c2ccnc3cc(Cl)ccc23)CC1`, the IC50 was 18.2 µM (not active) in test [10] and > 18.6 µM (not active) at Insulin-degrading enzyme.

In the case of `O=C1/C(=C\c2ccc(O)cc2)SC(=S)N1c1cccnc1`, the figures for the IC50 in [11] and in [13] were above 32 µM and 11.4 µM (active), respectively. At Beta-galactosidase [12], the EC50 was 14.6 µM (active).

In the case of `O=C(c1cc(-c2cc(F)c(Cl)cc2Cl)n[nH]1)N1CCOCC1`, the IC50 is > 100 µM (inactive) in test [14], > 100 µM (not active) in [6] and 3.37 µM (active) in test [7].

With `COc1ccccc1Cn1c(SCC(=O)C(C)(C)C)nc2cc(C(=O)N3CCC4(CC3)OCCO4)ccc2c1=O`, the half-maximal effective concentration (EC50) in test [15] was 4.58 µM (active).

Turning to `CN1/C(=C\C(=O)COC(=O)c2ccccc2O)C(C)(C)c2ccccc21`, in test [15], the EC50 was 1.67 µM (active).

For `CCOc1ccc(C(=O)NC2CCCc3c2cnn3-c2ccccc2F)cc1` (stereo not drawn), the IC50 in test [16] was 12.8 µM (active); at Tumor necrosis factor, > 20 µM (inactive); in test [17], 18.5 µM (active); with HEK293 it was > 20 µM (inactive).

For `COc1ccccc1CNC(=O)c1oc2ccccc2c1C`, the half-maximal effective concentration (EC50) in test [15] is 3.85 µM (active).

Take `CCc1cc(C(=O)NC2CCCc3c2cnn3-c2ccccc2F)no1` (stereo not drawn): the 50% inhibitory concentration (IC50) was 17.5 µM (active) in test [16], > 20 µM (inactive) at Tumor necrosis factor, > 20 µM (inactive) in test [17] and > 20 µM (inactive) in the test on HEK293.

Consider `Cn1nccc1C(=O)N[C@H]1CCCc2c1cnn2-c1ccccc1F`, for which the IC50 was 0.781 µM (active) in test [16], 0.994 µM (active) on Tumor necrosis factor, 1.12 µM (active) in test [17] and > 20 µM (inactive) with HEK293.

As to `Cc1occc1C(=O)N/N=C/c1ccc(Br)s1`, the EC50 in [1], in [2] and in test [3] was > 79.4 µM (not active) in each case.

Values taken from ChEMBL document CHEMBL1201862, “PubChem BioAssay data set” (2004).
